From ChEMBL document CHEMBL2439971, “Design, synthesis and antiproliferative evaluation of fluorenone analogs with DNA topoisomerase I inhibitory properties” (Bioorg Med Chem, 2013)
Active and inactive are the calls of the source. No cut-off for these calls is given here.

Key:
[1] = Cytotoxicity against human EKVX cells at 10 uM after 48 hrs by sulforhodamine B assay relative to control; type: functional
[2] = tested on: HCT-116; assay: Cytotoxicity against human HCT116 cells at 10 uM after 48 hrs by sulforhodamine B assay relative to control; type: functional
[3] = tested on: LOX IMVI; assay: Cytotoxicity against human LOXIMVI cells at 10 uM after 48 hrs by sulforhodamine B assay relative to control; type: functional
[4] = tested on: SK-MEL-2; assay: Cytotoxicity against human SK-MEL-2 cells at 10 uM after 48 hrs by sulforhodamine B assay relative to control; type: functional
[5] = tested on: SK-MEL-28; assay: Cytotoxicity against human SK-MEL-28 cells at 10 uM after 48 hrs by sulforhodamine B assay relative to control; type: functional
[6] = tested on: OVCAR-4; assay: Cytotoxicity against human OVCAR4 cells at 10 uM after 48 hrs by sulforhodamine B assay relative to control; type: functional
[7] = tested on: IGROV-1; assay: Cytotoxicity against human IGROV1 cells at 10 uM after 48 hrs by sulforhodamine B assay relative to control; type: functional
[8] = tested on: M14; assay: Cytotoxicity against human M14 cells at 10 uM after 48 hrs by sulforhodamine B assay relative to control; type: functional
[9] = tested on: KM12; assay: Cytotoxicity against human KM12 cells at 10 uM after 48 hrs by sulforhodamine B assay relative to control; type: functional
[10] = tested on: RXF 393; assay: Cytotoxicity against human RXF393 cells at 10 uM after 48 hrs by sulforhodamine B assay relative to control; type: functional
[11] = tested on: SK-MEL-5; assay: Cytotoxicity against human SK-MEL-5 cells at 10 uM after 48 hrs by sulforhodamine B assay relative to control; type: functional
[12] = tested on: PC-3; assay: Cytotoxicity against human PC3 cells at 10 uM after 48 hrs by sulforhodamine B assay relative to control; type: functional
[13] = tested on: NCI/ADR-RES; assay: Cytotoxicity against human NCI/ADR-RES cells at 10 uM after 48 hrs by sulforhodamine B assay relative to control; type: functional
[14] = tested on: UACC-257; assay: Cytotoxicity against human UACC257 cells at 10 uM after 48 hrs by sulforhodamine B assay relative to control; type: functional
[15] = tested on: BT-549; assay: Cytotoxicity against human BT549 cells at 10 uM after 48 hrs by sulforhodamine B assay relative to control; type: functional
[16] = tested on: UACC-62; assay: Cytotoxicity against human UACC62 cells at 10 uM after 48 hrs by sulforhodamine B assay relative to control; type: functional
[17] = tested on: MOLT-4; assay: Cytotoxicity against human MOLT4 cells at 10 uM after 48 hrs by sulforhodamine B assay relative to control; type: functional
[18] = tested on: T47D; assay: Cytotoxicity against human T47D cells at 10 uM after 48 hrs by sulforhodamine B assay relative to control; type: functional
[19] = tested on: HT-29; assay: Cytotoxicity against human HT-29 cells at 10 uM after 48 hrs by sulforhodamine B assay relative to control; type: functional
[20] = tested on: ACHN; assay: Cytotoxicity against human ACHN cells at 10 uM after 48 hrs by sulforhodamine B assay relative to control; type: functional
[21] = tested on: MCF7; assay: Cytotoxicity against human MCF7 cells at 10 uM after 48 hrs by sulforhodamine B assay relative to control; type: functional
[22] = tested on: OVCAR-3; assay: Cytotoxicity against human OVCAR3 cells at 10 uM after 48 hrs by sulforhodamine B assay relative to control; type: functional
[23] = tested on: HL-60(TB); assay: Cytotoxicity against human HL-60(TB) cells at 10 uM after 48 hrs by sulforhodamine B assay relative to control; type: functional
[24] = tested on: NCI-H322M; assay: Cytotoxicity against human NCI-H322M cells at 10 uM after 48 hrs by sulforhodamine B assay relative to control; type: functional
[25] = tested on: NCI-H226; assay: Cytotoxicity against human NCI-H226 cells at 10 uM after 48 hrs by sulforhodamine B assay relative to control; type: functional
[26] = tested on: COLO 205; assay: Cytotoxicity against human COLO205 cells at 10 uM after 48 hrs by sulforhodamine B assay relative to control; type: functional
[27] = tested on: 786-0; assay: Cytotoxicity against human 786-0 cells at 10 uM after 48 hrs by sulforhodamine B assay relative to control; type: functional
[28] = tested on: PC-3; assay: Cytotoxicity against human PC3 cells after 48 hrs by sulforhodamine B assay; type: functional, cell-based; details: PC-3, 48 h
[29] = tested on: OVCAR-5; assay: Cytotoxicity against human OVCAR5 cells at 10 uM after 48 hrs by sulforhodamine B assay relative to control; type: functional
[30] = tested on: NCI-H522; assay: Cytotoxicity against human NCI-H522 cells at 10 uM after 48 hrs by sulforhodamine B assay relative to control; type: functional
[31] = tested on: SNB-19; assay: Cytotoxicity against human SNB19 cells at 10 uM after 48 hrs by sulforhodamine B assay relative to control; type: functional
[32] = tested on: U-251; assay: Cytotoxicity against human U251 cells at 10 uM after 48 hrs by sulforhodamine B assay relative to control; type: functional
[33] = tested on: SW-620; assay: Cytotoxicity against human SW620 cells at 10 uM after 48 hrs by sulforhodamine B assay relative to control; type: functional
[34] = tested on: UO-31; assay: Cytotoxicity against human UO31 cells at 10 uM after 48 hrs by sulforhodamine B assay relative to control; type: functional
[35] = tested on: SF-295; assay: Cytotoxicity against human SF295 cells at 10 uM after 48 hrs by sulforhodamine B assay relative to control; type: functional
[36] = tested on: CCRF-CEM; assay: Cytotoxicity against human CCRF-CEM cells at 10 uM after 48 hrs by sulforhodamine B assay relative to control; type: functional
[37] = tested on: K562; assay: Cytotoxicity against human K562 cells at 10 uM after 48 hrs by sulforhodamine B assay relative to control; type: functional
[38] = tested on: HOP-62; assay: Cytotoxicity against human HOP62 cells at 10 uM after 48 hrs by sulforhodamine B assay relative to control; type: functional
[39] = tested on: MDA-MB-231; assay: Cytotoxicity against human MDA-MB-231 cells at 10 uM after 48 hrs by sulforhodamine B assay relative to control; type: functional
[40] = tested on: NCI-H23; assay: Cytotoxicity against human NCI-H23 cells at 10 uM after 48 hrs by sulforhodamine B assay relative to control; type: functional
[41] = tested on: RPMI-8226; assay: Cytotoxicity against human RPMI8226 cells at 10 uM after 48 hrs by sulforhodamine B assay relative to control; type: functional
[42] = Cytotoxicity against human Hs 578T cells at 10 uM after 48 hrs by sulforhodamine B assay relative to control; type: functional
[43] = tested on: SN12C; assay: Cytotoxicity against human SN12C cells at 10 uM after 48 hrs by sulforhodamine B assay relative to control; type: functional
[44] = tested on: SR; assay: Cytotoxicity against human SR cells at 10 uM after 48 hrs by sulforhodamine B assay relative to control; type: functional
[45] = tested on: DU-145; assay: Cytotoxicity against human DU145 cells at 10 uM after 48 hrs by sulforhodamine B assay relative to control; type: functional
[46] = tested on: MDA-MB-468; assay: Cytotoxicity against human MDA-MB-468 cells at 10 uM after 48 hrs by sulforhodamine B assay relative to control; type: functional
[47] = tested on: OVCAR-8; assay: Cytotoxicity against human OVCAR8 cells at 10 uM after 48 hrs by sulforhodamine B assay relative to control; type: functional
[48] = tested on: TK-10; assay: Cytotoxicity against human TK10 cells at 10 uM after 48 hrs by sulforhodamine B assay relative to control; type: functional
[49] = tested on: Malme-3M; assay: Cytotoxicity against human MALME-3M cells at 10 uM after 48 hrs by sulforhodamine B assay relative to control; type: functional
[50] = tested on: SF-539; assay: Cytotoxicity against human SF539 cells at 10 uM after 48 hrs by sulforhodamine B assay relative to control; type: functional
[51] = species: Homo sapiens; assay: Inhibition of telomerase (unknown origin) at 10 uM TRAP assay
[52] = tested on: NCI-H460; assay: Cytotoxicity against human NCI-H460 cells at 10 uM after 48 hrs by sulforhodamine B assay relative to control; type: functional
[53] = tested on: A549; assay: Cytotoxicity against human A549 cells at 10 uM after 48 hrs by sulforhodamine B assay relative to control; type: functional
[54] = tested on: SNB-75; assay: Cytotoxicity against human SNB75 cells at 10 uM after 48 hrs by sulforhodamine B assay relative to control; type: functional
[55] = tested on: CAKI-1; assay: Cytotoxicity against human CAKI-1 cells at 10 uM after 48 hrs by sulforhodamine B assay relative to control; type: functional
[56] = tested on: HCT-15; assay: Cytotoxicity against human HCT15 cells at 10 uM after 48 hrs by sulforhodamine B assay relative to control; type: functional
[57] = tested on: MDA-MB-435; assay: Cytotoxicity against human MDA-MB-435 cells at 10 uM after 48 hrs by sulforhodamine B assay relative to control; type: functional
[58] = tested on: HCC 2998; assay: Cytotoxicity against human HCC2998 cells at 10 uM after 48 hrs by sulforhodamine B assay relative to control; type: functional
[59] = tested on: SF-268; assay: Cytotoxicity against human SF268 cells at 10 uM after 48 hrs by sulforhodamine B assay relative to control; type: functional

For `O=C(CN1CCCC1)Nc1ccc2c(c1)C(=O)c1cc(NC(=O)CN3CCCC3)ccc1-2`, the Activity [1] was 100.27%, the Activity [2] was 79.74% and the Activity [3] was 90.25%. The Activity [4] was 106.76%, the Activity [5] was 103.08% and the Activity [6] was 71.07%. It also gave an Activity [7] of 86.73%, an Activity [8] of 103.87% and an Activity [9] of 85.82%. For the same molecule, the Activity [10] was 88.07%, the Activity [11] was 102.03% and the Activity [12] was 85.69%. For the same molecule, the Activity [13] was 93.68%, the Activity [14] was 106.11% and the Activity [15] was 101.36%. For the same molecule, the Activity [16] was 103.81%, the Activity [17] was 61.26% and the Activity [18] was 105.79%. The Activity [19] was 19.04%, the Activity [20] was 102.77% and the Activity [21] was 62.7%. It also gave an Activity [22] of 113.24%, an Activity [23] of 84.5% and an Activity [24] of 73.45%. For the same molecule, the Activity [25] was 104.39%, the Activity [26] was 89.07% and the Activity [27] was 90.88%. It also gave an IC50 [28] of 7.78 µM, an Activity [29] of 128.57% and an Activity [30] of 72.46%. For the same molecule, the Activity [31] was 96.18%, the Activity [32] was 81.2% and the Activity [33] was 68.12%. The Activity [34] was 69.71%, the Activity [35] was 86.51% and the Activity [36] was 68.3%. It also gave an Activity [37] of 68.94%, an Activity [38] of 88.02% and an Activity [39] of 73.88%. The Activity [40] was 93.89%, the Activity [41] was 78.34% and the Activity [42] was 100.68%. The Activity [43] was 87.69%, the Activity [44] was 74.15% and the Activity [45] was 83.47%. For the same molecule, the Activity [46] was 99.42%, the Activity [47] was 69.01% and the Activity [48] was 91.73%. The Activity [49] was 130.28%, the Activity [50] was 99.41% and the inhibition [51] was “inactive”. For the same molecule, the Activity [52] was 88.56%, the Activity [53] was 76.89% and the Activity [54] was 88.15%. The Activity [55] was 91.43%, the Activity [56] was 99.02% and the Activity [57] was 84.99%. It also gave an Activity [58] of 90.44% and an Activity [59] of 107.06%.
